Here are results for 32 compounds from patent US12275729B2 (Merck Sharp & Dohme LLC, priority 2017, dated 2025).

The first assay deals with IDO1 (Homo sapiens, UniProt P14902). Briefly: IDO1 Cellular Assay in HeLa Cells Stimulated with IFNγ. The assay is classed as cell-based. Particulars: about 48 hours, read-out: Hela IC50.
Chain of IDO1 (P14902 whole entry): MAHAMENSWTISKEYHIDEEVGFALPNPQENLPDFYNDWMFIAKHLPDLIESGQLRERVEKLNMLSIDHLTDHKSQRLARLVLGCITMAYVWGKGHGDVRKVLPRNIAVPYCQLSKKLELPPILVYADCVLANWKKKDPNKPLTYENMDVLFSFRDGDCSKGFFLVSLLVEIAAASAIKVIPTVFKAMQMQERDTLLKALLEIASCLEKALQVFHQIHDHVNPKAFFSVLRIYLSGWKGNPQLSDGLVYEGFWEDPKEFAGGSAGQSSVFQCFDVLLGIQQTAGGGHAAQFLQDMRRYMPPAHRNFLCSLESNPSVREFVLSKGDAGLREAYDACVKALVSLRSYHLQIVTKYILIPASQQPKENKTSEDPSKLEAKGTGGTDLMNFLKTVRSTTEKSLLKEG
Usually IC50 stands for the point on the concentration scale where inhibition reaches its midpoint. `CC(=O)N1CC(C(=O)N2CCCc3cc([C@H](C)C(=O)Nc4ccc(F)cc4)ccc32)C1` [Example 69, (2S)-2-[1-(1-acetylazetidine-3-carbonyl)-1,2,3,4-tetrahydroquinolin-6-yl]-N-(4-fluorophenyl)propanamide]: the IC50 stood at 9020 nM.

In the case of `CC(C(=O)Nc1ccc(F)cc1)c1ccc2c(n1)CCCN2C(=O)C1CCOCC1` (centres unmarked) [Example 167, N-(4-fluorophenyl)-2-[5-(oxane-4-carbonyl)-5,6,7,8-tetrahydro-1,5-naphthyridin-2-yl]propanamide], the IC50 turned out to be 5.1 nM.

As for `CC(C)CC(=O)N1CCCc2cc(CC(=O)Nc3ccc(Cl)cc3)ccc21` [Example 35, N-(4-chlorophenyl)-2-(1-(3-methylbutanoyl)-1,2,3,4-tetrahydroquinolin-6-yl)acetamide], the IC50 was found to be 6.9 nM.

Regarding `C[C@H](C(=O)Nc1ccc(Cl)cc1)c1ccc2c(c1)CCCN2C(=O)c1cccc(Cl)c1` (single isomer, unassigned) [Example 56], the IC50 came to 3.1 nM.

For `C[C@H](C(=O)Nc1ccc(F)cc1)c1ccc2c(c1)CCCN2C(=O)C[C@@H](C)O` [Example 68, (2S)-N-(4-fluorophenyl)-2-{1-[(3R)-3-hydroxybulanoyl]-1,2,3,4-tetrahydroquinolin-6-yl}propanamide], the 50% inhibitory concentration (IC50) stood at 296 nM.

As for `O=C(Nc1ccc(F)cc1)C(c1ccc2c(n1)CCCN2C(=O)C1CC1)C1CC1` (single isomer, unassigned) [Example 261, 2-(5-(cyclopropanecarbonyl)-5,6,7,8-tetrahydro-1,5-naphthyridin-2-yl)-2-cyclopropyl-N-(4-fluorophenyl)acetamide], the concentration for half-maximal inhibition (IC50) was 24 nM.

With `C[C@H](C(=O)Nc1ccc(F)cc1)c1ccc2c(c1)CCCN2C(=O)CC(F)(F)F` [Example 91, (2S)-N-(4-fluorophenyl)-2-[1-(3,3,3-trifluoropropanoyl)-1,2,3,4-tetrahydroquinolin-6-yl]propanamide], the half-maximal inhibitory concentration (IC50) was determined as 105 nM.

For `CC(C(=O)Nc1ccc(F)cc1)c1ccc2c(n1)CCCN2C(=O)[C@@H]1CCCO1` (single isomer, unassigned) [Example 164], the IC50 was 1.1 nM.

As for `CC(NC(=O)c1ccc(F)cc1)c1ccc2c(n1)C(O)CCN2C(=O)C1CC1` (single isomer, unassigned) [Example 198, N-(1-(5-(cyclopropanecarbonyl)-8-hydroxy-5,6,7,8-tetrahydro-1,5-naphthyridin-2-yl)ethyl)-4-fluorobenzamide], the concentration for half-maximal inhibition (IC50) amounted to 393 nM.

As for `CC(C(=O)Nc1ccc(F)cc1)c1ccc2c(c1)CCCN2C1CCCCC1` (centres unmarked) [Example 228, 2-(1-cyclohexyl-1,2,3,4-tetrahydroquinolin-6-yl)-N-(4-fluorophenyl)propanamide], the half-inhibitory concentration (IC50) was 4150 nM.

As for `CC(NC(=O)c1ccc(F)cc1)c1ccc2c(n1)CCCN2CC1CC1` (centres unmarked) [Example 227, N-{1-[5-(cyclopropylmethyl)-5,6,7,8-tetrahydro-1,5-naphthyridin-2-yl]ethyl}-4-fluorobenzamide], the IC50 came to 70.5 nM.

Turning to `Cc1nnc(C(=O)N2CCCc3cc(C(C)C(=O)Nc4ccc(F)cc4)ccc32)o1` (centres unmarked) [Example 44], the concentration for half-maximal inhibition (IC50) amounted to 16.8 nM.

With `Cc1cc(C(=O)N2CCCc3cc(C4(C(=O)Nc5ccc(F)cn5)CCC4)ccc32)ncn1` [Example 107, N-(5-fluoropyridin-2-yl)-1-[1-(6-methylpyrimidine-4-carbonyl)-1,2,3,4-tetrahydroquinolin-6-yl]cyclobutane-1-carboxamide], the concentration for half-maximal inhibition (IC50) came to 12.8 nM.

As for `CC(C)CC(=O)N1CCCc2cc(C(C)NC(=O)c3ccc(Cl)cc3)ccc21` (single isomer, unassigned) [Example 26, 4-chloro-N-{1-[1-(3-methylbutanoyl)-1,2,3,4-tetrahydroquinolin-6-yl]ethyl}benzamide], the 50% inhibitory concentration (IC50) is 4.3 nM.

For the compound `Cc1cnc(C(=O)N2CCCc3cc(C(C)C(=O)Nc4ccc(F)cc4)ccc32)s1` (centres unmarked) [Example 41, N-(4-fluorophenyl)-2-[1-(5-methyl-1,3-thiazole-2-carbonyl)-1,2,3,4-tetrahydroquinolin-6-yl]propanamide], the IC50 amounted to 4.6 nM.

Consider `Cc1c(C(=O)N2CCCc3cc(C4(C(=O)Nc5ccc(F)cc5)CCC4)ccc32)cnn1C` [Example 111, 1-[1-(1,5-dimethyl-1H-pyrazole-4-carbonyl)-1,2,3,4-tetrahydroquinolin-6-yl]-N-(4-fluorophenyl)cyclobutane-1-carboxamide], for which the half-inhibitory concentration (IC50) was 65.5 nM.

Turning to `CC(C)CC(=O)N1CCCc2cc(CNC(=O)c3ccc(C(F)(F)F)cc3)ccc21` [Example 7, N-{[1-(3-methylbutanoyl)-1,2,3,4-tetrahydroquinolin-6-yl]methyl}-4-(trifluoromethyl)benzamide], the 50% inhibitory concentration (IC50) came out at 42.5 nM.

Turning to `COC(=O)N1CCCc2nc(C(C)C(=O)Nc3ccc(F)cc3)ccc21` (centres unmarked) [Example 220, methyl 6-{1-[(4-fluorophenyl)amino]-1-oxopropan-2-yl}-3,4-dihydro-1,5-naphthyridine-1(2H)-carboxylate], the concentration for half-maximal inhibition (IC50) amounted to 1.9 nM.

Regarding `CC(NC(=O)c1ccc(F)cc1)c1ccc2c(n1)C(F)CCN2C(=O)C1CC1` (single isomer, unassigned) [Example 204, N-(1-(5-(cyclopropanecarbonyl)-8-fluoro-5,6,7,8-tetrahydro-1,5-naphthyridin-2-yl)ethyl)-4-fluorobenzamide], the IC50 is 228 nM.

For `O=C(c1cnn(CC(F)F)c1)N1CCCc2cc(C3(C(=O)Nc4ccc(F)cc4)CCC3)ccc21` [Example 114, 1-{1-[1-(2,2-difluoroethyl)-1H-pyrazole-4-carbonyl]-1,2,3,4-tetrahydroquinolin-6-yl}-N-(4-fluorophenyl)cyclobutane-1-carboxamide], the half-inhibitory concentration (IC50) is 86.1 nM.

On to `O=C(NCc1ccc2c(c1)CCCN2C(=O)c1cccc(Cl)c1)c1cccc(Cl)c1` [Example 16, 3-chloro-N-((1-(3-chlorobenzoyl)-1,2,3,4-tetrahydroquinolin-6-yl)methyl)benzamide], for which the half-maximal inhibitory concentration (IC50) was determined as 118 nM.

Turning to `O=C(NCc1ccc2c(c1)CCCN2C(=O)OCc1ccccc1)c1ccc(Cl)cc1` [Example 15, benzyl 6-((4-chlorobenzamido)methyl)-3,4-dihydroquinoline-1(2H)-carboxylate], the concentration for half-maximal inhibition (IC50) is 36.9 nM.

In the case of `C[C@H](C(=O)Nc1ccc(F)cc1)c1ccc2c(c1)CCCN2C(=O)CC(C)(C)O` [Example 71, (2S)-N-(4-fluorophenyl)-2-[1-(3-hydroxy-3-methylbutanoyl)-1,2,3,4-tetrahydroquinolin-6-yl]propanamide], the IC50 came out at 30.3 nM.

`CC(C(=O)Nc1ccc(F)cc1)c1ccc2c(c1)CCCN2C(=O)C1CC1` (centres unmarked) [Example 36, 2-[1-(cyclopropanecarbonyl)-1,2,3,4-tetrahydroquinolin-6-yl]-N-(4-fluorophenyl)propanamide]: the IC50 is 5.8 nM.

Consider `CC(C)[C@@H](O)C(=O)N1CCCc2cc([C@H](C)C(=O)Nc3ccc(F)cc3)ccc21` (single isomer, unassigned) [Example 72], for which the IC50 came to 43.8 nM.

As to `CO[C@@H](C)C(=O)N1CCCc2cc([C@H](C)C(=O)Nc3ccc(F)cc3)ccc21` (single isomer, unassigned) [Example 75], the half-maximal inhibitory concentration (IC50) was determined as 61.8 nM.

For the compound `C[C@H](C(=O)Nc1ccc(F)cn1)c1ccc2c(c1)CCCN2C(=O)C1(F)CC1` (single isomer, unassigned) [Example 63], the half-maximal inhibitory concentration (IC50) was 16.5 nM.

Still in this assay, the particulars now being: read-out: Hela IC50.
On to `CC(NC(=O)c1ccc(F)cc1)c1ccc2c(n1)CCCN2C(=O)OCCc1ccc(Cl)c(Cl)c1` (centres unmarked) [Example 326, 3,4-dichlorophenethyl 6-(1-(4-fluorobenzamido)ethyl)-3,4-dihydro-1,5-naphthyridine-1(2H)-carboxylate], for which the IC50 is 24.3 nM.

For the compound `CC(NC(=O)c1ccc(F)cc1)c1ccc2c(n1)CCCN2C(=O)OCCCn1ccnc1` (centres unmarked) [Example 325, 3-(1H-imidazol-1-yl)propyl 6-(1-(4-fluorobenzamido)ethyl)-3,4-dihydro-1,5-naphthyridine-1(2H)-carboxylate], the IC50 is 1300 nM.

On to `CC(NC(=O)c1ccc(F)cc1)c1ccc2c(n1)CCCN2C(=O)OCCC1CC1(F)F` (centres unmarked) [Example 319, 2-(2,2-difluorocyclopropyl)ethyl 6-(1-(4-fluorobenzamido)ethyl)-3,4-dihydro-1,5-naphthyridine-1(2H)-carboxylate], for which the concentration for half-maximal inhibition (IC50) worked out at 9.87 nM.

As to `C[C@H](NC(=O)c1ccc(F)cc1)c1ccc2c(n1)CCCN2c1cccc(OC(C)(C)C)n1` [Example 385, (S)-N-(1-(5-(6-(tert-butoxy)pyridin-2-yl)-5,6,7,8-tetrahydro-1,5-naphthyridin-2-yl)ethyl)-4-fluorobenzamide], the half-maximal inhibitory concentration (IC50) worked out at 968 nM.

Regarding `Cc1nccc(N2CCCc3nc(C(C)C(=O)Nc4ccc(F)cc4)ccc32)n1` (centres unmarked) [Example 371, N-(4-fluorophenyl)-2-(5-(2-methylpyrimidin-4-yl)-5,6,7,8-tetrahydro-1,5-naphthyridin-2-yl)propanamide], the half-maximal inhibitory concentration (IC50) came to 2.72 nM.
